Experimental data taken from a compilation of properties of binary mixtures (doi:10.2298/jsc190413047v).

Assay: xn = mol fraction of the nth substance listed
Details: 100 kPa

O=C1CCCO1 + CCCC[n+]1ccn(C)c1.O=S(=O)([N-]S(=O)(=O)C(F)(F)F)C(F)(F)F
Details	electrical conductivity [S/m]	viscosity [mPa·s]
293.15 K, x1 = 0.1005	0.347	46.39
293.15 K, x1 = 0.1984	0.388	37.16
293.15 K, x1 = 0.4001	0.519	23.42
293.15 K, x1 = 0.5021	0.637	17.37
293.15 K, x1 = 0.5979	0.797	12.26
293.15 K, x1 = 0.7021	1.13	8.54
293.15 K, x1 = 0.7999	1.34	5.53
293.15 K, x1 = 0.8995	1.34	3.49
293.15 K, x1 = 0.95	1.04	–
293.15 K, x1 = 1	0.001	1.92
298.15 K, x1 = 0.1005	0.428	38.33
298.15 K, x1 = 0.1984	0.469	30.92
298.15 K, x1 = 0.2992	0.546	24.97
298.15 K, x1 = 0.4001	0.618	19.75
298.15 K, x1 = 0.5979	0.928	10.7
298.15 K, x1 = 0.7021	1.29	7.58
298.15 K, x1 = 0.7999	1.5	5.04
298.15 K, x1 = 0.8496	1.53	–
298.15 K, x1 = 0.8995	1.48	3.26
298.15 K, x1 = 0.95	1.14	–
298.15 K, x1 = 1	0.001	1.73
298.15 K, x2 = 0.0151	0.444	–
303.15 K, x1 = 0.1005	0.501	31.8
303.15 K, x1 = 0.1984	0.552	25.69
303.15 K, x1 = 0.4001	0.72	16.68
303.15 K, x1 = 0.5021	0.853	12.76
303.15 K, x1 = 0.5979	1.05	9.32
303.15 K, x1 = 0.7021	1.43	6.67
303.15 K, x1 = 0.7999	1.65	4.55
303.15 K, x1 = 0.8496	1.69	–
303.15 K, x1 = 0.8995	1.61	2.97
303.15 K, x1 = 0.95	1.23	–
303.15 K, x1 = 1	0.001	1.63
303.15 K, x2 = 0.0151	0.477	–
308.15 K, x1 = 0.1005	0.586	26.88
308.15 K, x1 = 0.1984	0.642	21.98
308.15 K, x1 = 0.2992	0.745	17.9
308.15 K, x1 = 0.4001	0.825	14.35
308.15 K, x1 = 0.5021	0.981	11.04
308.15 K, x1 = 0.7021	1.63	6
308.15 K, x1 = 0.8995	1.75	2.76
308.15 K, x1 = 0.95	1.32	–
308.15 K, x2 = 0.0151	0.509	–
313.15 K, x1 = 0.1005	0.68	22.69
313.15 K, x1 = 0.2992	0.854	15.26
313.15 K, x1 = 0.4001	1	12.32
313.15 K, x1 = 0.5021	1.2	9.62
313.15 K, x1 = 0.7021	1.81	5.41
313.15 K, x1 = 0.7999	1.98	3.78
313.15 K, x1 = 0.8496	2.01	–
313.15 K, x1 = 0.8995	1.88	2.55
318.15 K, x1 = 0.1005	0.768	19.31
318.15 K, x1 = 0.1984	0.85	15.86
318.15 K, x1 = 0.2992	0.965	13.24
318.15 K, x1 = 0.4001	1.19	10.82
318.15 K, x1 = 0.5021	1.4	8.52
318.15 K, x1 = 0.5979	1.64	6.49
318.15 K, x1 = 0.7021	1.99	4.84
318.15 K, x2 = 0.0151	0.576	–
323.15 K, x1 = 0.1005	0.898	16.54
323.15 K, x1 = 0.1984	1.03	13.86
323.15 K, x1 = 0.2992	1.24	11.57
323.15 K, x1 = 0.4001	1.46	9.47
323.15 K, x1 = 0.5021	1.68	7.51
323.15 K, x1 = 0.5979	1.91	5.83
323.15 K, x1 = 0.7021	2.21	4.44
323.15 K, x1 = 0.8496	2.34	–
323.15 K, x1 = 0.8995	2.17	2.18
323.15 K, x1 = 0.95	1.62	–
323.15 K, x2 = 0.0151	0.609	–

CCCCn1cc[n+](C)c1C.O=S(=O)([N-]S(=O)(=O)C(F)(F)F)C(F)(F)F + O=C1CCCO1
electrical conductivity [S/m]
Details	293.15 K	298.15 K	303.15 K	308.15 K	313.15 K	318.15 K	323.15 K
x2 = 0	0.178	0.23	0.289	0.351	0.426	–	–
x2 = 0.1014	–	0.262	0.325	0.398	–	0.569	0.669
x2 = 0.1987	0.246	0.301	0.367	0.442	0.525	0.619	0.739
x2 = 0.3	–	0.37	–	–	0.631	0.729	0.842
x2 = 0.4001	0.381	0.465	0.567	0.67	0.787	0.904	1.03
x2 = 0.4995	0.511	0.613	0.722	0.861	0.976	1.1	1.27
x2 = 0.5994	0.706	0.807	0.934	1.07	1.22	1.36	1.52
x2 = 0.7012	0.882	1.01	1.14	–	–	–	1.74
x2 = 0.8001	–	1.25	1.39	1.53	1.68	1.83	1.99
x2 = 0.8496	1.19	1.31	1.45	1.58	1.72	1.85	2
x2 = 0.8996	1.18	–	1.41	1.53	1.66	1.78	1.91
x2 = 0.9468	0.849	0.927	–	1.1	1.2	1.3	1.41

CCCCCCCCn1cc[n+](C)c1.O=S(=O)([N-]S(=O)(=O)C(F)(F)F)C(F)(F)F + O=C1CCCO1
electrical conductivity [S/m]
Details	x2 = 0	x2 = 0.0997	x2 = 0.2993	x2 = 0.5048	x2 = 0.6963	x2 = 0.7994	x2 = 0.8503	x2 = 0.8999	x2 = 0.9514
293.15 K	0.106	0.126	0.184	–	0.601	0.845	0.953	0.984	0.653
298.15 K	–	0.161	0.235	0.396	–	0.955	1.06	1.07	0.718
303.15 K	0.17	0.199	0.28	0.474	0.83	1.07	1.17	1.18	–
308.15 K	–	0.24	0.342	0.553	0.94	1.21	1.29	1.29	0.853
313.15 K	0.254	0.285	–	0.636	1.06	1.33	1.41	1.39	0.915
318.15 K	–	–	0.48	0.744	1.19	1.47	1.53	–	0.976
323.15 K	0.361	0.397	–	0.817	1.33	1.56	1.64	1.59	–

CC[n+]1ccn(C)c1C.O=S(=O)([N-]S(=O)(=O)C(F)(F)F)C(F)(F)F + O=C1CCCO1
electrical conductivity [S/m]
Details	293.15 K	298.15 K	303.15 K	308.15 K	313.15 K	318.15 K	323.15 K
x2 = 0	0.309	–	0.468	0.567	0.67	0.783	–
x2 = 0.0999	0.383	0.472	0.574	0.684	0.805	0.938	–
x2 = 0.186	0.476	0.572	0.686	0.803	0.934	1.07	1.21
x2 = 0.3071	–	0.742	0.868	1.01	1.16	1.31	1.45
x2 = 0.4005	0.726	0.864	1.01	1.17	1.33	1.5	1.61
x2 = 0.4996	0.881	1.01	1.17	–	1.51	–	1.81
x2 = 0.5987	1.06	1.22	1.37	1.53	1.7	1.88	–
x2 = 0.6999	1.24	–	1.57	1.74	1.91	2.08	2.21
x2 = 0.7999	–	–	1.69	1.85	2.01	2.19	2.39
x2 = 0.8474	1.43	1.58	1.73	1.86	2.01	2.15	–
x2 = 0.8999	1.35	1.48	1.6	–	–	1.97	2.07
x2 = 0.9507	–	1	1.08	1.16	1.24	1.32	–

O=C1CCCO1 + CCCC[N+]1(C)CCCC1.O=S(=O)([N-]S(=O)(=O)C(F)(F)F)C(F)(F)F
x1 = 1
Details	electrical conductivity [S/m]	viscosity [mPa·s]
298.15 K	0.001	1.73
303.15 K	0.001	1.63
308.15 K	0.001	1.52
313.15 K	0.001	1.42
318.15 K	0.001	1.35
323.15 K	0.002	1.3

CC[n+]1ccn(C)c1.O=S(=O)([N-]S(=O)(=O)C(F)(F)F)C(F)(F)F + O=C1CCCO1
electrical conductivity [S/m]
Details	293.15 K	298.15 K	303.15 K	308.15 K	313.15 K	318.15 K	323.15 K
x2 = 0	–	0.915	–	–	–	1.51	1.75
x2 = 0.1009	0.905	1.04	1.18	1.32	1.49	1.67	1.89
x2 = 0.2073	1.05	–	–	1.48	1.65	–	–
x2 = 0.3005	–	1.32	–	1.61	–	1.96	2.19
x2 = 0.3897	1.29	1.45	1.61	1.76	1.92	2.11	2.34
x2 = 0.5101	–	1.63	–	1.95	2.12	–	2.53
x2 = 0.6	1.6	1.76	1.93	2.09	2.25	2.45	–
x2 = 0.7	1.73	1.9	–	2.23	2.4	2.59	2.81
x2 = 0.7994	1.77	1.94	–	–	2.42	–	2.79
x2 = 0.8498	1.75	1.9	–	2.19	2.35	2.51	2.71
x2 = 0.9005	–	1.72	1.85	1.98	–	2.25	2.4
x2 = 0.95	–	1.22	–	1.4	1.5	–	1.7
